Results on 39 compounds are retold here after patent US12391686B2, “Compounds and uses thereof” (Foghorn Therapeutics Inc., priority 2019, dated 2025).

The target in this assay is T1, Nanoluciferase-BRD9 fusion protein (3×FLAG-NLuc-BRD9) in SYO-1 cells (Homo sapiens, UniProt Q9H8M2).
T1 construct: expressed in transfected cells; host or cells: SYO-1
T1 sequence (Q9H8M2 1-597): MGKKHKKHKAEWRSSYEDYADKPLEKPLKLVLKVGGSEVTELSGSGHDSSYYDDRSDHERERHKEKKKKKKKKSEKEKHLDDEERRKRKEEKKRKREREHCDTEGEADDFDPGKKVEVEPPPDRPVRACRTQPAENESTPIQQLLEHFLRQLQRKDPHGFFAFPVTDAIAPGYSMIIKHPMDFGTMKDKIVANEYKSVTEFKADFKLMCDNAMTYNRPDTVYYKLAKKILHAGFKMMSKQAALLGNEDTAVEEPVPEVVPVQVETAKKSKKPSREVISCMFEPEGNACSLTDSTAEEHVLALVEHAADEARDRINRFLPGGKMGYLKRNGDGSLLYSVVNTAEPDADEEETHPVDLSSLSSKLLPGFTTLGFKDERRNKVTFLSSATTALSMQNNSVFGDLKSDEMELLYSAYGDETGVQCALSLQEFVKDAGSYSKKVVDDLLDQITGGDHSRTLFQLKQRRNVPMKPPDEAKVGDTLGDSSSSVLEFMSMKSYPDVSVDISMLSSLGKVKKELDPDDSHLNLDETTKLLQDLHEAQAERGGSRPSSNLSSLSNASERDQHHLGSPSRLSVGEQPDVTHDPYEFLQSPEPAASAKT
Nature of the assay: SYO1 BRD9 NanoLuc Degradation Assay. In kind it is cell-based. Particulars: SYO-1 cells expressing 3×FLAG-NLuc-BRD9, 6 hours incubation, 1 μM top dose, read-out: SYO1 BRD9-NanoLuc degradation IC50. As for the experimental part:
Procedure: A stable SYO-1 cell line expressing 3×FLAG-NLuc-BRD9 was generated. On day 0 cells were seeded in 30 μL media into each well of 384-well cell culture plates. The seeding density was 8000 cells/well. On day 1, cells were treated with 30 nL DMSO or 30 nL of 3-fold serially DMSO-diluted compounds (10 points in duplicates with 1 μM as final top dose). Subsequently plates were incubated for 6 hours in a standard tissue culture incubator and equilibrated at room temperature for 15 minutes. Nanoluciferase activity was measured by adding 15 μL of freshly prepared Nano-Glo Luciferase Assay Reagent (Promega N1130), shaking the plates for 10 minutes and reading the bioluminescence using an EnVision reader.
Results: The Inhibition % was calculated using the following formula: % Inhibition=100×(LumHC−Lumsample)/(LumHC−LumLC). DMSO treated cells are employed as High Control (HC) and 1 μM of a known BRD9 degrader standard treated cells are employed as Low Control (LC).

Read-outs that look alike come from different tables or passages of the source.

As for `COc1cc2c(-c3cc(OC)c(CN4CCC(CCN5CCC6(CC5)CN(c5ccc7c(c5)C(=O)N(C5CCC(=O)NC5=O)C7)C6)CC4)c(OC)c3)cn(C)c(=O)c2cn1` (stereo not drawn) [Compound D199], the DC50 (Table 6C) is < 10 nM.
On the same count and under the same terms, the value for `COc1cc(-c2cn(C)c(=O)c3cnc(N(C)C)cc23)cc(OC)c1CC1CCN(c2ccc3c(c2)C(=O)N(C2CCC(=O)NC2=O)C3)CC1` (stereo not drawn) [Compound D280] was < 10 nM; that for `COc1cc(-c2cn(C)c(=O)c3cnc(N(C)C)cc23)cc(OC)c1CCN1CCC(CN2CCC3(CC2)CC(Oc2ccc4c(c2)C(=O)N(C2CCC(=O)NC2=O)C4)C3)CC1` (stereo not drawn) [Compound D298] was < 10 nM; that for `COc1cc(-c2cn(C)c(=O)c3cnc(N4CCOCC4)cc23)cc(OC)c1CN1CC(Oc2ccc3c(c2)CN(C2CCC(=O)NC2=O)C3=O)C1` (stereo not drawn) [Compound D314] was < 10 nM.
Turning to `COc1cc(-c2cn(C)c(=O)c3ccc(N(C)C)cc23)cc(OC)c1CN1CC(CN2CCC3(CC2)CN(c2ccc4c(c2)C(=O)N(C2CCC(=O)NC2=O)C4)C3)C1` (stereo not drawn) [Compound D285], for the setting “Table 6C”, the DC50 was ≥ 1000 nM.
Same read-out and setting: the value for `COc1cc(-c2cn(C)c(=O)c3cnc(N(C)C)cc23)cc(OC)c1CN1CCC(c2ccc3c(c2)CN(C2CCC(=O)NC2=O)C3=O)CC1` (stereo not drawn) [Compound D297] was < 10 nM.
On the same count and under the same terms, then `COc1cc(-c2cn(C)c(=O)c3cnc(N4CCC4)cc23)cc(OC)c1C1CCN(c2ccc3c(c2)C(=O)N(C2CCC(=O)NC2=O)C3)CC1` (stereo not drawn) [Compound D294], with < 10 nM.
Take `COc1cc(-c2cn(C)c(=O)c3cnc(N4CCC4)cc23)cc(OC)c1CN1CC(N2CCC(c3ccc4c(c3)C(=O)N(C3CCC(=O)NC3=O)C4)CC2)C1` (stereo not drawn) [Compound D179]: the DC50 (Table 6B) was ≥ 1000 nM.
As for `[2H]C([2H])([2H])n1cc(-c2cc(OC)c(CN3CC(Oc4ccc5c(c4)C(=O)N(C4CCC(=O)NC4=O)C5)C3)c(OC)c2)c2cc(OC)ncc2c1=O` (stereo not drawn) [Compound D239], where the note is “Table 6C”, the DC50 was < 10 nM.
In the case of `COc1cc(-c2cn(C)c(=O)c3cnc(N(C)C)cc23)cc(F)c1CN1CCC(CCN2CCN(c3ccc4c(c3)C(=O)N(C3CCC(=O)NC3=O)C4=O)CC2)CC1` (stereo not drawn) [Compound D41], where the note is “Table 6B”, the DC50 is < 10 nM.
Take `COc1cc2c(-c3cc(OC)c(CN4[C@H](C)CN(c5ccc6c(c5)C(=O)N(C5CCC(=O)NC5=O)C6)C[C@H]4C)c(OC)c3)cn(C)c(=O)c2cn1` (stereo partly drawn) [Compound D281]: the DC50 (Table 6C) was < 10 nM.
Same read-out and setting: then `COc1cc(-c2cn(C)c(=O)c3cnc(C(C)(C)CO)cc23)cc(OC)c1CN1CCC(CN2CCC3(CC2)CC(Oc2ccc4c(c2)CN(C2CCC(=O)NC2=O)C4=O)C3)CC1` (stereo not drawn) [Compound D315], with < 10 nM.
Turning to `COc1cc(-c2cn(C)c(=O)c3cnc(N(C)C)cc23)cc(OC)c1CN1CC(C(C)(C)N2CCC3(CC2)CN(c2ccc4c(c2)C(=O)N(C2CCC(=O)NC2=O)C4=O)C3)C1` (stereo not drawn) [Compound D97], where the note is “Table 6B”, the DC50 was < 10 nM.
The same measure, in the same setting: then `COc1cc(-c2cn(C)c(=O)c3cnc(N(C)C)cc23)cc(OC)c1CN1CCN(CC(C)(C)Oc2ccc3c(c2)C(=O)N(C2CCC(=O)NC2=O)C3=O)CC1` (stereo not drawn) [Compound D96], with < 10 nM.
With `COc1cc2c(-c3cc(OC)c(CN4CCN(c5ccc6c(c5)C(=O)N(C5CCC(=O)NC5=O)C6)CC4C)c(OC)c3)cn(C)c(=O)c2cn1` (stereo not drawn) [Compound D293], under “Table 6C”, the DC50 is < 10 nM.
Same read-out and setting: then `COc1cc2c(-c3cc(OC)c(C4CCN(c5ccc6c(c5)C(=O)N(C5CCC(=O)NC5=O)C6)CC4)c(OC)c3)cn(C)c(=O)c2cn1` (stereo not drawn) [Compound D295], with < 10 nM.
The same measure, in the same setting: the value for `COc1cc(-c2cn(C)c(=O)c3cnc(N4CCC4)cc23)cc(OC)c1CN1CCC(CN2CCC3(CN(c4ccc5c(c4)CN(C4CCC(=O)NC4=O)C5=O)C3)C(F)(F)C2)CC1` (stereo not drawn) [Compound D232] was < 10 nM; that for `COc1cc(-c2cn(C)c(=O)c3cnc(C4CC4)cc23)cc(OC)c1CN1CC(CN2CCC3(CC2)CN(c2ccc4c(c2)C(=O)N(C2CCC(=O)NC2=O)C4)C3)C1` (stereo not drawn) [Compound D193] was < 10 nM.
Consider `COc1cc(-c2cn(C)c(=O)c3cnc(N(C)C)cc23)c(OC)cc1CN1CCN(CCC2CCN(c3ccc4c(c3)C(=O)N(C3CCC(=O)NC3=O)C4=O)CC2)CC1` (stereo not drawn) [Compound D145], for which, under “Table 6B”, the DC50 is < 10 nM.
In the case of `COc1cc(-c2cn(C)c(=O)c3cnc(N4CCC4)cc23)cc(OC)c1CN1CCC(CN2CCC3(CC2)CN(c2ccc4c(c2)CN(C2CCC(=O)NC2=O)C4=O)C3)CC1` (stereo not drawn) [Compound D218], the DC50 (Table 6C) is < 10 nM.
Still for that read-out and setting: then `[2H]C([2H])([2H])n1cc(-c2cc(OC)c(CN3CCN(CCC4CCN(c5ccc6c(c5)CN(C5CCC(=O)NC5=O)C6=O)CC4)CC3)c(OC)c2)c2cc(OC)ncc2c1=O` (stereo not drawn) [Compound D230], with < 10 nM.
With `C=CCn1cc(-c2cc(OC)c(CN3CCN(CCC4CCN(c5ccc6c(c5)C(=O)N(C5CCC(=O)NC5=O)C6=O)CC4)CC3)c(OC)c2)c2cc(N(C)C)ncc2c1=O` (stereo not drawn) [Compound D134], the DC50 (Table 6B) was < 10 nM.
For `[2H]C([2H])([2H])n1cc(-c2cc(OC)c(CN3[C@H](C)CN(c4ccc5c(c4)C(=O)N(C4CCC(=O)NC4=O)C5)C[C@H]3C)c(OC)c2)c2cc(OC)ncc2c1=O` (stereo partly drawn) [Compound D254], for the setting “Table 6C”, the DC50 is < 10 nM.
On to `COc1cc(-c2cn(C)c(=O)c3cnc(N(C)C)cc23)cc(OC)c1CN1CC(CN2CCC3(CC2)CN(c2ccc4c(c2)C(=O)N(C2CCC(=O)NC2=O)C4=O)C3)C1` (stereo not drawn) [Compound D50], for which the DC50 (Table 6B) is < 10 nM.
The same measure, in the same setting: then `COc1cc(-c2cn(C)c(=O)c3cnc(N(C)C)cc23)cc(OC)c1CN1CCC(CCN2CCN(C3CCC(=O)NC3=O)C(=O)C2)CC1` (stereo not drawn) [Compound D88], with 10 to 100 nM.
Consider `COc1cc2c(-c3cc(OC)c(CN4CC(CN5CCC6(CC5)CN(c5ccc7c(c5)C(=O)N(C5CCC(=O)NC5=O)C7)C6)C4)c(OC)c3)cn(C)c(=O)c2cn1` (stereo not drawn) [Compound D316], for which the DC50 (Table 6C) was < 10 nM.
Still for that read-out and setting: then `COc1cc(-c2cn(C)c(=O)c3cnc(C4CC4)cc23)cc(OC)c1CN1CCC(C#Cc2ccc3c(c2)C(=O)N(C2CCC(=O)NC2=O)C3)CC1` (stereo not drawn) [Compound D269], with < 10 nM.
`[2H]C1CC(N2Cc3cc(N4CCC(CCN5CCN(Cc6c(OC)cc(-c7cn(C)c(=O)c8cnc(N9CCC9)cc78)cc6OC)CC5)CC4)ccc3C2=O)C(=O)NC1=O` (stereo not drawn) [Compound D245]: the DC50 (Table 6C) is < 10 nM.
The same measure, in the same setting: then `COc1cc(-c2cn(C)c(=O)c3cnc(C4CC4)cc23)cc(OC)c1CN1CCC(CN2CCC3(CC2)CC(Oc2ccc4c(c2)C(=O)N(C2CCC(=O)NC2=O)C4=O)C3)CC1` (stereo not drawn) [Compound D301], with < 10 nM.
With `COc1cc(-c2cn(C)c(=O)c3cnc(N(C)C)cc23)cc(OC)c1CN(C)c1ccc2c(c1)CN(C1CCC(=O)NC1=O)C2=O` (stereo not drawn) [Compound D277], the DC50 (Table 6C) was < 10 nM.
Still for that read-out and setting: the value for `COc1cc2c(-c3cc(OC)c(CN4CCC(c5ccc6c(c5)CN(C5CCC(=O)NC5=O)C6=O)CC4)c(OC)c3)cn(C)c(=O)c2cn1` (stereo not drawn) [Compound D235] was < 10 nM.
On the same count and under the same terms, the value for `[2H]C([2H])([2H])n1cc(-c2cc(OC)c(CN3CCC4(CC3)CN(c3ccc5c(c3)C(=O)N(C3CCC(=O)NC3=O)C5)C4)c(OC)c2)c2cc(OC)ncc2c1=O` (stereo not drawn) [Compound D234] was < 10 nM.
`COc1cc(-c2cn(C)c(=O)c3cnc(N(C)C)cc23)cc(OC)c1CN1CCC2CN(c3ccc4c(c3)C(=O)N(C3CCC(=O)NC3=O)C4=O)C21` (stereo not drawn) [Compound D92]: for the setting “Table 6B”, the DC50 was < 10 nM.
`COc1cc(-c2cn(C)c(=O)c3cnc(C4CC4)cc23)cc(OC)c1CN1CC(C#Cc2ccc3c(c2)CN(C2CCC(=O)NC2=O)C3=O)C1` (stereo not drawn) [Compound D271]: under “Table 6C”, the DC50 was < 10 nM.
Take `COc1cc(-c2cn(C)c(=O)c3cnc(N(C)C)cc23)cc(OC)c1CN1CCC2(CC1)CC(N1CCN(c3ccc4c(c3)C(=O)N(C3CCC(=O)NC3=O)C4=O)CC1)C2` (stereo not drawn) [Compound D56]: the DC50 (Table 6B) was < 10 nM.
The same measure, in the same setting: the value for `COc1cc(-c2cn(C)c(=O)c3cnc(N(C)C)cc23)cc(OC)c1CN1CCC2(CC1)CN(c1ccc3c(c1)CN(C1CCC(=O)NC1=O)C3=O)C2` (stereo not drawn) [Compound D127] was < 10 nM.
The same measure, in the same setting: the value for `CNc1cc2c(-c3cc(OC)c(CN4CCN(CCC5CCN(c6ccc7c(c6)C(=O)N(C6CCC(=O)NC6=O)C7=O)CC5)CC4)c(OC)c3)cn(C)c(=O)c2cn1` (stereo not drawn) [Compound D106] was < 10 nM; that for `COc1cc(-c2cn(C)c(=O)c3cnc(N(C)C)cc23)cc(OC)c1CN1CCC(C(N2CCC3(CC2)CC(Oc2ccc4c(c2)C(=O)N(C2CCC(=O)NC2=O)C4=O)C3)C(F)(F)F)CC1` (stereo not drawn) [Compound D99] was < 10 nM.
The same measure, in the same setting: the value for `COc1cc(-c2cn(C)c(=O)c3cnc(N4CCOCC4)cc23)c(OC)cc1CN1CC(CN2CCC3(CC2)CN(c2ccc4c(c2)C(=O)N(C2CCC(=O)NC2=O)C4)C3)C1` (stereo not drawn) [Compound D147] was < 10 nM.
